From patent publication US20110071198A1 (priority 2008, published 2011)
Read-outs that look alike come from different tables or passages of the source.

Tests used:
[1] = literature; cited from earlier work
cPLA2 = assay type: cell-based; details: pretreatment of cells
Procedure: Agonist-stimulated activation of cPLA2 in the presence of control siRNA, β-arrestin1 siRNA, or control siRNA plus either pertussis toxin or PD98059 (PD). […] (FIG. 6D) Activation or phosphorylation of cPLA2 in siRNA-treated cells. **P=0.0085 versus respective 10-minute value; ***P=0.0047 versus respective 0-minute value. Data are mean±SEM of 3 independent experiments.
Immunoblotting and immunoprecipitation. […] For immunoprecipitation, cells were treated with serum-free media with and without nicotinic acid. Cells were washed once with PBS at 4° C., harvested by gentle scraping, pelleted, and resuspended in glycerol lysis buffer including protease and phosphatase inhibitors. […] Immunoprecipitation reactions were incubated at 4° C. for 3 hours, washed 3 times with glycerol lysis buffer, and resuspended in SDS running buffer. Samples were subjected to SDS-PAGE analysis and Western blotting with cPLA2 antibody (diluted 1:1,000; Cell Signaling Technology), phosphorylated cPLA2 antibody (diluted 1:1,000; Cell Signaling Technology), M2 antibody (diluted 1:2,000; Sigma-Aldrich), and β-arrestin antibody (diluted 1:1,000; BD Biosciences).

[2] = parameters: species or system mice; details: mouse, in vivo
Procedure: FIG. 10. […]. Perfusion of the ventral ear in age and weight matched wild-type C57B1/6 mice was measured with laser doppler. […] The first dose was 25 mg/kg, the second dose was 50 mg/kg and the third dose was 100 mg/kg. Wild-type (rechallenge) mice received all three doses of nicotinic acid and wild-type (control) mice received the first dose of nicotinic acid followed by two subsequent doses with vehicle alone. Plotted values represent the mean change in perfusion as a function of time from 8 animals.

[3] = Mouse cutaneous flushing assay (laser Doppler perfusion of ventral ear); assay type: in vivo, mice; details: i.p. 100 mg/kg
Procedure: FIGS. 8A-8E. […] Animal use and protocols. […] The animals were euthanized 30 minutes later. Serum was collected and stored at −80° C. […] Readings were continually recorded for 30 minutes.

peritoneal macrophages = details: 200 μM, 10 minutes
Procedure: FIGS. 8A-8E. […] Data are mean±SEM for change in perfusion as a function of time. […] (FIG. 8D) Maximum response to PGD2, plotted as mean±SEM (n=15−25 per condition). […] Thioglycollate-elicited peritoneal macrophages were loaded with H3-arachidonic acid (H3-AA) for 24 hours, and then rinsed to remove arachidonic acid not incorporated into cell membrane lipids. […] Animal use and protocols. All animal studies were reviewed and approved by the Duke University Internal Animal Care and Use Committee. […] Age- and weight-matched male mice over 12 weeks of age were used in all experiments. […] The animals were euthanized 30 minutes later. Serum was collected and stored at −80° C. […] After 10 minutes, the mice were placed under an LDPI laser Doppler (PeriScan PIM II; Perimed). The right ear was everted to expose the anterior/ventral surface. The laser Doppler was focused on the central portion of the ventral ear. Data were collected using the repeated data collection mode with a 5-mm×5-mm image size, a 10-second delay, and high-resolution scan. […] Readings were continually recorded for 30 minutes. As a control, each animal was subsequently treated with 4 mg/kg PGD2 dissolved in PBS.

[4] = nicotinic acid therapy; cited from earlier work
[5] = tested on: differentiated THP-1 macrophages; details: 200 μM for 10 minutes; data not shown
[6] = i.p. 10, 50 or 100 mg/kg; wild-type C57BL/6, β-arrestin1-deficient and β-arrestin2-deficient mice
Procedure: FIG. 7. […] Animal use and protocols. All animal studies were reviewed and approved by the Duke University Internal Animal Care and Use Committee. […] Age- and weight-matched male mice over 12 weeks of age were used in all experiments. […] The animals were euthanized 30 minutes later. Serum was collected and stored at −80° C. […] After 10 minutes, the mice were placed under an LDPI laser Doppler (PeriScan PIM II; Perimed). The right ear was everted to expose the anterior/ventral surface. The laser Doppler was focused on the central portion of the ventral ear. Data were collected using the repeated data collection mode with a 5-mm×5-mm image size, a 10-second delay, and high-resolution scan. […] Readings were continually recorded for 30 minutes. As a control, each animal was subsequently treated with 4 mg/kg PGD2 dissolved in PBS.

Langerhans cells = details: 10 μM for 10 minutes
Procedure: Data are mean±SEM of 3 independent experiments.
The plates were transferred on ice, and cells were washed twice with ice-cold PBS and then scraped in PBS containing complete protease inhibitor cocktail (Roche Applied Sciences). Cells were lysed by brief sonication and then centrifuged at 3,000 g for 5 minutes to remove unbroken cells and nuclear fractions. Subsequently, the supernatant was centrifuged at 21,000 g for 30 minutes to separate the membrane fraction (in the pellet) and cytosolic fraction (in the supernatant). The membrane pellet was resuspended in PBS, proteins in the membrane and the cytosolic fractions were measured by Bradford assay, and β-arrestins were detected by Western blot analysis.

GPR109A [7] = molecular target: T1, GPR109A (Homo sapiens, UniProt Q8TDS4); assay: ICUE cAMP assay in HEK-293 cells expressing FLAG-GPR109A and ICUE2 biosensor; assay type: cell-based
T1 construct: expressed in transfected cells; plus Zeocin with ICUE2
Procedure: ICUE cAMP assay. […] Experiments were performed on a NOVOstar plate reader (BMG Labtech).

GPR109A [8] = molecular target: T1, GPR109A; assay: Phosphorylated ERK immunoblotting in HEK-293 cells; assay type: cell-based; details: GPR109A-expressing cells
Procedure: Total ERK1/2 was detected with anti-MAPK1/2 (diluted 1:3,000; Upstate Biotechnology). […] Anti-rabbit and anti-mouse secondary antibodies for Western blots were obtained from Amersham Biosciences. For immunoprecipitation, cells were treated with serum-free media with and without nicotinic acid. Cells were washed once with PBS at 4° C., harvested by gentle scraping, pelleted, and resuspended in glycerol lysis buffer including protease and phosphatase inhibitors. […] Immunoprecipitation reactions were incubated at 4° C. for 3 hours, washed 3 times with glycerol lysis buffer, and resuspended in SDS running buffer. Samples were subjected to SDS-PAGE analysis and Western blotting with cPLA2 antibody (diluted 1:1,000; Cell Signaling Technology), phosphorylated cPLA2 antibody (diluted 1:1,000; Cell Signaling Technology), M2 antibody (diluted 1:2,000; Sigma-Aldrich), and β-arrestin antibody (diluted 1:1,000; BD Biosciences).

T1 sequence (Q8TDS4 whole entry, species assumed): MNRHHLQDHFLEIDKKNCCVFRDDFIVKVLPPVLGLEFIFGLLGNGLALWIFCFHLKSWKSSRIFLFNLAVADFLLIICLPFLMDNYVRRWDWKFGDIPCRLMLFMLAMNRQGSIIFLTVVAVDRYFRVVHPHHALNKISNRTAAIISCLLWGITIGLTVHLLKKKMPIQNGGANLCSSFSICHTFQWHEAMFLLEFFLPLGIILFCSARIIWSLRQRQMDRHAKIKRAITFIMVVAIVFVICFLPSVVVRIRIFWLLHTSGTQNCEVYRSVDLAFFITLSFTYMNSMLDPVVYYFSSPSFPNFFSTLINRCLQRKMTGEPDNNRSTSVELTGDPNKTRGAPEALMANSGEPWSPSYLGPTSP

C1Cc2[nH]nc(-c3nn[nH]n3)c2C1 [MK-0354]
cutaneous flushing [1]: do not induce cutaneous flushing | serum FFAs [1]: decrease serum FFAs

COc1cccc(-c2cc(=O)c3ccccc3o2)c1N [PD98059]
basal level of phosphorylated cPLA2 after pretreatment (cPLA2): substantially increased

O=C(O)c1cccnc1 [nicotinic acid, Nicotinic acid]
tachyphylaxis to cutaneous vasodilation/flushing [2]: rapid tachyphylaxis | nicotinic acid-stimulated increase in perfusion in β-arrestin1-deficient mice ([3]; versus wild type): dramatically decreased | perfusion of the ventral ear ([3]; wild-type and β-arrestin2-deficient mice): dramatic increase in perfusion | release of radiolabeled eicosanoids in β-arrestin1-deficient cells (peritoneal macrophages; versus wild type): significantly reduced | release of radiolabeled eicosanoids (peritoneal macrophages; wild-type and β-arrestin2-deficient macrophages): increased | occurrence of cutaneous vasodilation or flushing side effect [4]: ~80 % of patients | β-arrestin1 translocation in differentiated THP-1 macrophages [5]: led to β-arrestin1 translocation | serum FFAs [6]: significant and essentially identical decreases in FFAs | recruitment of β-arrestin1 to the membrane of Langerhans cells (Langerhans cells): robust recruitment

pertussis toxin
MK-0354-induced cAMP decrease, sensitivity to pertussis toxin (GPR109A [7]; agonist MK-0354): sensitive | nicotinic acid-induced cAMP decrease, sensitivity to pertussis toxin (GPR109A [7]; agonist nicotinic acid): sensitive | effect on nicotinic acid-stimulated ERK phosphorylation (GPR109A [8]): all but eliminated | basal level of phosphorylated cPLA2 after pretreatment (cPLA2): substantially increased
